From patent publication US20250134851A1 (priority 2021, published 2025)

Legend:
[1] = test system: skin wrinkles under the eyes; parameters: species or system human; conditions: in vivo
[2] = test system: hyperhidrosis (hand sweating); parameters: species or system human; conditions: in vivo
[3] = format: physicochemical; conditions: pH 7
[4] = test system: sweating area of hind paw of ICR mice; conditions: mouse, in vivo, 0.8 mg/kg
PC12 cells = format: cell-based

SMILES	Reduction of skin wrinkle dermal density (%) [1] [%]	Sweat weight [2] [%]	Residual amount [3]	sweating area relative to control [4]	inhibition of acetylcholine release (PC12 cells)
CC(=O)Oc1c(-c2cc(O)c(O)c(O)c2)oc2cc(O)cc(O)c2c1=O [3-Acetyl-Myricetin, 3-acetyl-myricetin]	78	28	≈100%	improved effect to a degree that the previously reported myricetin derivatives cannot provide	inhibit acetylcholine release
COc1cc(O)c2c(=O)c(OC)c(-c3cc(OC)c(OC)c(OC)c3)oc2c1 [Combretol, combretol]	36	56	<<10%	–	–
COc1cc(-c2oc3cc(O)cc(O)c3c(=O)c2O)cc(O)c1O [Laricitrin, laricitrin]	38	52	<<10%	–	–
O=c1c(O)c(-c2cc(O)c(O)c(O)c2)oc2cc(O)cc(O)c12 [Myricetin, myricetin]	48	55	<<10%	–	–
COc1cc(-c2oc3cc(O)cc(O)c3c(=O)c2O)cc(OC)c1O [Syringetin, syringetin]	37	53	<<10%	–	–
